Experimental findings from US20030082229A1, “Parenteral chlorambucil for treatment of malignant and autoimmune disease and methods of use” (priority 2001, published 2003) are described below.

Molecules are shown by their SMILES. “Also recorded” adds a separate entry of the source. Read-outs that look alike come from different tables or passages of the source.

Series [1] in a line: physchem. The class given is physicochemical. The method, then:
The solubility of CLB was determined in several individual vehicles. Briefly, a known amount of CLB drug, formulated as a powder (Sigma, St Louis, Mo.), was equilibrated in the respective solvent at RT over 1-4 hours. An aliquot was removed, filtered, and diluted in methanol (MeOH) before high-pressure liquid chromatography (HPLC) to determine solubility at predetermined times. Based on the CLB solubility in each vehicle, different solvents were mixed according to the cosolvency principle in an attempt to enhance the stable solubility (Spiegel A. J., Noseworthy M. N.: Use of nonaqueous solvents in parenteral products. J. PHARM. SCI. 52:917-927, 1963; Yalkowsky S. H., Roseman T. J.: Solubilization of drugs by cosolvents. In: Yalkowsky S. H. (Ed.): TECHNIQUES OF SOLUBILIZATION OF DRUGS. pp. 91-134. Marcel Dekker Inc., New York, N.Y. 1981).
An excess of CLB as a powder was added to DMSO, PEG, and PG at RT. Each mixture was placed in a dark environment and checked visually for up to 4 hours for evidence of solubilization. Samples of 1 ml were taken at various time intervals. The CLB concentration was then determined by HPLC after filtration through a 0.45 μm polytetrafluoroethylene (PTFE) membrane filter (Autovial®) fitted to a syringe assembly (Whatman Inc., Springfield Mill, Maidstone, Kent, UK).

Series [2] can be described thus: Osmotic pressure measurement (micro-osmometer). It counts as physicochemical. As to conditions: CLB final concentration 1-5 mg/ml. The method, then:
It is desirable that a parenteral formulation of a pharmacologically active agent be isosmotic with blood. A hypertonic delivery system can be utilized if the drug formulation is infused through an indwelling (central) venous catheter and gradually diluted in a large blood volume. Osmotic pressures were measured with a micro-osmometer model 3MOplus osmometer (Advanced Instruments Inc., Needham Heights, Mass.). The instrument was calibrated using Advans™ intrinsic calibration standards (Advanced Instruments Inc.) in the range of 500-2000 mOsm/kg. The test solution was placed in a disposable cuvette, and the osmotic pressure readings were recorded. Triplicate measurements were carried out for each vehicle (without CLB), and six measurements were done with drug added. A two-tailed t-test was used to compare the differences in osmotic pressures of various solvent vehicles with and without the addition of CLB (Mann H. B., Whitney D. R.: On a test whether one of two random variables is stochastically larger than the other. ANN. MATH. STATIST. 18: 50-60, 1947).

Series [3] relates to HL-60 human myeloid leukemia cell line. Put plainly: In vitro clonogenic cytotoxicity assay, HL-60. It counts as cell-based. As to conditions: acetone positive control. On the procedure:
(§1) The cytotoxic potential of selected solvent systems with and without CLB was determined against the two human myeloid leukemia cell lines (HL-60) (Gallagher R. Collins S, Trujillo et al: Characterization of the continuously differentiating myeloid cell line (HL-60) from a patient with acute promyelocytic leukemia. BLOOD 54:254-68, 1979) and human myeloid leukemia cell line (KBM-7/B5) (Andersson B S, Beran M, Pathak S, et al: Ph-positive chronic leukemia with near-haploid conversion in vivo and establishment of a continuously growing cell line with similar cytogenetic pattern. CANCER GENETICS AND CYTOGENET 24:335-43, 1987; Andersson B S, Collins V P, Kurzrock R, et al: KBM-7; human myeloid leukemia cell line with double Philadelphia chromosomes but lacking normal BCR and c-ABL transcripts. LEUKEMIA, 9:2100-2108, 1995). Briefly, HL-60 or KBM-7/B5 cells were suspended at a density of 5,000 cells per ml in Iscove's modified Dulbecco medium (IMDM) supplemented with 20% fetal bovine serum (FBS) and 0.3% agar as viscous support. […] Clones of>50 cells were counted under an inverted phase contrast microscope, and survival curves were constructed as described (Andersson B S, Mroue M, Britten R A, Murray D: The role of DNA damage in the resistance of human chronic myeloid leukemia cells to cyclophosphamide analogs. CANCER RESEARCH 54:5394-5400, 1994).

For series [4], the system named is KBM-7/B5 human myeloid leukemia cell line. As to the kind of experiment: In vitro clonogenic cytotoxicity assay, KBM-7/B5. The class given is cell-based. Particulars: acetone positive control. The method, then: as §1
A short description of series [5]: IV CLB pharmacology in rats. It counts as in vivo, Sprague-Dawley rats. An excerpt:
Male Sprague-Dawley rats with a body weight of 250-300 g were used for the in vivo pharmacology experiments (Harlan-Sprague-Dawley, Houston, Tex.). The animals were allowed a minimum of 3-4 days after arrival to accommodate to the new environment and allowed free access to commercial feed and tap water prior to and during the experimentation period. The animals were housed in facilities that meet the requirements of the U.S. Department of Agriculture, (USDA), National Institute of Health (NIH), and Department of Health and Human Services (DHHS).
The CLB dose of 5 mg/kg BW was determined to be the highest dose that could be administered to the rats as an IV bolus injection without requiring anticonvulsant premedication.
The CLB was formulated in EtOH/lipid (prototype EtOH/lipid solvent vehicle) to a stock concentration of 100 mg/ml and then diluted with NS so the dose (5.0 mg/kg) could be injected in a tail vein in a volume of approximately 0.5 ml. The CLB concentrations of the formulation were confirmed by HPLC prior to all administrations. No anticonvulsant premedication for the rats in this experiment was used in order to avoid the possible induction of microsomal liver enzymes that could modify CLB metabolism. The animals were unanesthetized, being only physically restrained during the drug injection for the same reason.
Blood samples (0.5-1.0 ml) were drawn in heparinized tubes at selected time points prior to the drug infusion (“blank”), and from 5 min to 6 hours after drug injection for determination of CLB concentrations. The samples were obtained through cardiac puncture under light CO2 anesthesia in the rats and through a prepositioned cephalic vein catheter in the dogs. The blood was centrifuged at 1,000×g for 10 min, and the plasma was removed and stored at−80° C. until extracted and assayed by HPLC.

Series [6] is classed as physicochemical.

In the case of `O=C(O)CCCc1ccc(N(CCCl)CCCl)cc1` [CLB, 4-[Bis(2-chloroethyl)amino]benzenebutanoic acid], the solubility in series [1] (DMSO, organic solvent or mixture, thermodynamic from solid, DMSO, RT, read-out: CLB solubility (maximum equilibrium concentration) in DMSO) is more than 100 mg/mL; in series [1] (prototype EtOH/lipid solvent vehicle, aqueous with cosolvent or surfactant or cyclodextrin, thermodynamic from solid, EtOH/emulsified soybean oil vehicle, read-out: CLB solubility in prototype EtOH/lipid solvent vehicle), not below 100 mg/mL. Besides, the solubility at 1 h in series [1] (EtOH, organic solvent or mixture, thermodynamic from solid, EtOH, within 1 hour at RT, read-out: CLB solubility (maximum equilibrium concentration) in EtOH) is more than 100 mg/mL. Besides, the “CLB solubility in aqueous solvents” value in series [1] (NS, 5% dextrose in water, soybean lipid emulsion (Intralipid)) is “virtually insoluble”. Moreover, the “Solubilized CLB in PEG-400, PG, NS, 20% soybean lipid emulsion, 5% dextrose” value in series [1] (RT) is reported as “did not yield any significant concentrations of solubilized drug”. Besides, the “Change of osmolarity of complete vehicle by addition of CLB” value in series [2] is less than 5%. The “Cytotoxic activity in the formulation vs CLB dissolved in acetone, HL-60” value in series [3] is on record as “retained full cytotoxic activity”. The “Cytotoxic activity in the formulation vs CLB dissolved in acetone, KBM-7/B5” value in series [4] was “retained full cytotoxic activity”. In series [5] (5 mg/kg BW IV), the “CLB plasma concentrations after IV injection, rats” value is “detectable, cytotoxic CLB plasma concentrations; also recorded: for several hours remained in the cytotoxic range; also recorded: maintained for several hours”. Also, in series [5] (5.0 mg/kg BW IV), the “Tolerability of injection, rats” value is reported as “well tolerated; also recorded: well accepted”. The “Highest dose as IV bolus without requiring anticonvulsant premedication” value in series [5] (rats, IV bolus) is listed as 5 mg/kg BW. In addition, the “CLB degradation in DMSO” value in series [6] (DMSO) is “started degrading within a few hours”. In series [6] (DMSO, RT), the “Time CLB stable in DMSO before significant degradation” value is on record as “at most 2 hours”. Besides, the “Time formulation stable after mixing with infusion fluid” value in series [6] (EtOH/lipid diluted with infusion fluid, RT, listed as Chlorambucil) is more than 24 h. Besides, the “Stability (percent remaining) of infusion formulation” value in series [6] (RT, over 24 hours, FIG. 1) is given as more than 90%. Besides, the “CLB recovered at 24 hours, diluted to 1 mg/ml” value in series [6] (primary stock diluted with NS to 1 mg/ml) is given as more than 95%. Further, in series [6] (primary stock diluted with NS to 5 mg/ml), the “CLB recovered at 24 hours, diluted to 5 mg/ml” value was more than 95%.
